What was measured:
Rat Paw Edema = assay: Rat paw edema assay (carrageenan-induced); format: in vivo, Male Sprague-Dawley rats; details: po, 1 hr before subplantar carrageenan, paw volume measured three hr later
Protocol: Male Sprague-Dawley rats (150-200 g) are fasted overnight and are given, po, either vehicle (1% methocel or 5% Tween 80) or a test compound. One hr later, a line is drawn using a permanent marker at the level above the ankle in one hind paw to define the area of the paw to be monitored. The paw volume (V0) is measured using a plethysmometer (Ugo-Basile, Italy) based on the principle of water displacement. The animals are then injected subplantarly with […] of 1% carrageenan solution in saline (FMC Corp, Maine) into the paw using an insulin syringe with a 25-gauge needle (i.e. […] carrageenan per paw). Three hr later, the paw volume (V3) is measured and the increases in paw volume (V3 - VO) are calculated. The animals are sacrificed by CO2 asphyxiation and the absence or presence of stomach lesions scored. Data is compared with the vehicle-control values and percent inhibition calculated. All treatment groups are coded to eliminate observer bias.

human COX-1 = target: T1, human COX-1 (Homo sapiens, UniProt P23219); assay: Whole cell COX-1 assay using CHO transfected cell line (PGE2 radioimmunoassay); format: cell-based; details: CHO [hCOX-1] cells; PGE2 synthesis in response to arachidonic acid
T1 construct: expressed in transfected cells; host or cells: CHO [hCOX-1], stably transfected with pCDNAIII
T1 sequence (P23219 24-599): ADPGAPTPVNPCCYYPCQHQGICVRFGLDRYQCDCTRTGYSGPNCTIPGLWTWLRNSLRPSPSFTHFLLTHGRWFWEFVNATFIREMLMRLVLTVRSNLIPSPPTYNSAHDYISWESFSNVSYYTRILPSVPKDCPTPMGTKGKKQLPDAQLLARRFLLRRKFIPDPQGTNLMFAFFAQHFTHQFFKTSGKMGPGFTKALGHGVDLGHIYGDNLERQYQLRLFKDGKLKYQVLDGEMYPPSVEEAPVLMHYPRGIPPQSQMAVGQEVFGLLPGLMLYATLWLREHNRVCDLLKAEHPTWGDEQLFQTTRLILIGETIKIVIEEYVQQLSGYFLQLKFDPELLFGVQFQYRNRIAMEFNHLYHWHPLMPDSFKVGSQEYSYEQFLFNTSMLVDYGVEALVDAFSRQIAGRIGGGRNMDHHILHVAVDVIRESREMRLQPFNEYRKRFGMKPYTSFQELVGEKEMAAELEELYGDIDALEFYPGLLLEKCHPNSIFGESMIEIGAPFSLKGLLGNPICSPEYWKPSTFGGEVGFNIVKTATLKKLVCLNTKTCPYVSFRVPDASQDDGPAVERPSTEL
Protocol: Compounds are tested as inhibitors of cyclooxygenase activity in whole cell cyclooxygenase assays. These assays measure prostaglandin E2 synthesis in response to arachidonic acid, using a radioimmunoassay. Cells used for these assays are chinese hamster ovary (CHO) cell lines which have been stably transfected with an eukaryotic expression vector […] containing either the human Cox-1 or Cox-2 CDNA's. U937 cell microsomes are also used to measure Cox-1 activity.
Chinese hamster ovary (CHO) cell lines which have been stably transfected with an eukaryotic expression vector pCDNAIII containing either the human COX-1 or COX-2 cDNA's are used for the assay. These cell lines are referred to as CHO [hCOX-1] and CHO [hCOX-2], respectively. […]
Compounds of the present invention are inhibitors of cyclooxygenase-2 and are thereby useful in the treatment of cyclooxygenase-2 mediated diseases as enumerated above. […] In the assay, inhibition is determined by measuring the amount of prostaglandin E2 (PGE2) synthesized in the presence of arachidonic acid, cyclooxygenase-1 or cyclooxygenase-2 and a putative inhibitor.

IC50 (human COX-1) | Structure (SMILES) | ED50 (Rat Paw Edema)
100 µM | C[C@@H](CF)COC1=C(c2ccc(S(C)(=O)=O)cc2)C(C)(C)OC1=O [Example 10, 3-(((2R)-3-Fluoro-2-methylpropyl)oxy)-5,5-dimethyl-4-(4-methylsulfonylphenyl)-5H-furan-2-one] | 3.2 mg/kg
> 50 µM | C[C@H](CF)COC1=C(c2ccc(S(C)(=O)=O)cc2)C(C)(C)OC1=O [Example 11, 3-(((2S)-3-fluoro-2-methylpropyl)oxy)-5,5-dimethyl-4-(4-methylsulfonylphenyl)-5H-furan-2-one] | 2.3 mg/kg

From patent EP0970067B1, “(METHYLSULFONYL)PHENYL-2-(5H)-FURANONES WITH OXYGEN LINK AS COX-2 INHIBITORS” (Merck Frosst Canada & Co., priority 1997, dated 1998)
